What was measured:
THP1 human AML cell line = test: Viability of human AML cells (THP1) treated in culture with iCT in combination with DON; assay type: cell-based; conditions: different doses of iCT (cytarabine+doxorubicin) in combination with DON, 72 h in vitro, FIG. 5A
Procedure: Arrows show the range where synergism occurs. […] FIG. 5C provides the chemical structure of glutamine and 6-diazo-5-oxo-L-norleucine (DON). FIGS. 5D-5E show survival of AML-bearing mice treated with iCT (days 7-11) with or without short term 6-diazo-5-oxo-L-norleucine (DON; 0.3 mg/kg), showing the treatment schedule (FIG. 5D) and Kaplan-Meier survival curves (FIG. 5E). iCT+DON: both given at same time; iCT+DON^+3: DON started 3 days after first dose of iCT. FIGS. 5F-5G show survival of AML-bearing mice treated with iCT (days 7-11) with or without continuous DON ([…]), showing the treatment schedule (FIG. 5F) and Kaplan-Meier survival curves (FIG. 5G). iCT+DON^post: DON started after last dose of iCT.
(§1) To confirm that glutamine metabolism plays a functional role in protecting AML cells from chemotherapy, human AML cells (THP1) were treated in culture with iCT in combination with 6-diazo-5-oxo-L-norleucine (DON), a glutamine analog and antagonist that inhibits all glutamine-dependent enzymes (FIG. 5C). […] Mice carrying AML were then treated in combination with DON at different regimens (FIG. 5D).

MLL-AF9 AML cells = test: Survival of AML-bearing mice treated with iCT with or without DON; assay type: in vivo, mouse
Procedure: Arrows show the range where synergism occurs. […] FIG. 5C provides the chemical structure of glutamine and 6-diazo-5-oxo-L-norleucine (DON). FIGS. 5D-5E show survival of AML-bearing mice treated with iCT (days 7-11) with or without short term 6-diazo-5-oxo-L-norleucine (DON; 0.3 mg/kg), showing the treatment schedule (FIG. 5D) and Kaplan-Meier survival curves (FIG. 5E). iCT+DON: both given at same time; iCT+DON^+3: DON started 3 days after first dose of iCT. […]
To test this hypothesis, a mouse model was used in which cells express MLLAF9, driving leukemia development, luciferase, and GFP. The mouse model allows real-time monitoring of leukemic burden through bioluminescence imaging, and therefore identification of the moment of maximal response to iCT. Bone marrow cells derived from terminally ill primary mice were intravenously transplanted into secondary wildtype recipients, leading to the development of a very aggressive disease that can be monitored in real time since only AML cells express luciferase and GFP. Mice were treated with a chemotherapy regimen that closely mimics the one used in patients (cytarabine for 5 days and doxorubicin for the first 3 days) or vehicle, and followed disease progression using bioluminescence imaging (FIG. 6A). It was discovered that the amount of maximal response occurs 3-4 days after the last dose of chemotherapy (FIG. 6B). This means that at this moment, after the selection pressure of chemotherapy, massive neighboring cell death, and possibly other stress factors such as niche alteration, certain cells have adapted and are now started to grow again.
as §1

[1] = Tolerability of daily DON injections in mice carrying AML; assay type: in vivo, mouse; conditions: daily injections extended for more than 5 days
Procedure: as §1

[N-]=[N+]=CC(=O)CC[C@H](N)C(=O)O [DON, 6-diazo-5-oxo-L-norleucine]
interaction of iCT and DON on viability of THP1 cells (THP1 human AML cell line): synergy at several doses | survival of AML-bearing mice, DON given together with iCT, versus iCT alone (MLL-AF9 AML cells; DON 0.3 mg/kg daily for 5 days at the same time as iCT (cytarabine 100 mg/kg 5 days + doxorubicin 3 mg/kg first 3 days), FIG. 5B/5E): did not extend survival | survival of AML-bearing mice, DON short treatment (MLL-AF9 AML cells; DON daily for 5 days at 0.3 mg/kg, FIG. 5B/5E): did not have much effect | interaction between iCT and DON treatment on survival (MLL-AF9 AML cells; DON every other day at 0.3 mg/kg, extended treatment after iCT, FIG. 5G): clear synergism | survival of AML-bearing mice, DON every other day after iCT, versus iCT alone (MLL-AF9 AML cells; DON every other day at 0.3 mg/kg, started after last dose of iCT (iCT+DONpost), p=0.0019, FIG. 5F/5G): increased substantially | survival of AML-bearing mice, DON delayed 3 days after first dose of iCT (MLL-AF9 AML cells; iCT+DON+3: short-term DON 0.3 mg/kg started 3 days after first dose of iCT, spanning the moment of maximal response, FIG. 5E): a clear survival benefit was achieved | lethality of daily DON injections [1]: proved lethal

— US20210177880A1, “METHODS AND COMPOSITIONS FOR TREATING ACUTE MYELOID LEUKEMIA” (President and Fellows of Harvard College, priority 2017, published 2021)
